Results from patent publication US20210392882A1, “METHODS AND COMPOSITIONS FOR IMPROVED INSECT REPELLENCY” (Board of Trustees of Michigan State University, priority 2020, published 2021).

Assays:
[1] = system: sbt-1 sensilla (sbt-1A and sbt-1B neurons); assay: Single sensillum recording (SSR) of antennal sbt-1 sensilla; assay type: cell-based, Aedes aegypti; conditions: for response of sbt-1A neuron / response of sbt-1B neuron: wild-type ROCK; for response of sbt-1A neuron: pyrethrum and EBF at 10^−2 dilution; for response of sbt-1A neurons in AaOr31−/− mosquitoes: AaOr31 knockout vs ROCK, 10^−2 dilution, FIG. 3A; for response of sbt-1B neurons in AaOr31−/− mosquitoes: AaOr31 knockout, specificity control; for response of sbt-1B neuron: pyrethrum at 10^−2
Protocol: (§1) Single sensilla recording was conducted as described in Liu et al. J Insect Physiol 59, 1169-1177 (2013). Female mosquitoes 4 days after eclosion were anaesthetized (2-3 min on ice) and mounted on a microscope slide (76×26 mm). An antenna was fixed using a double-sided tape to a cover slip resting on a small ball of dental wax to facilitate manipulation. The cover slip was placed at an appropriate angle to the mosquito head. Once mounted, the specimen was placed under a microscope (Nikon SMA645, Japan) and the antenna viewed at a high magnification (1000×). Two tungsten microelectrodes were sharpened in 10% KNO2 at 2-10 V. The reference electrode, which was connected to ground, was inserted into the compound eye of the mosquito and the other was connected to the preamplifier (10×, Syntech, Kirchzarten, Germany) and inserted into the shaft of an olfactory sensillum to complete the electrical circuit to extracellularly record olfactory receptor neuron potentials (Den Otter et al., Journal of Insect Physiology 26, 465-472 (1980)). Controlled manipulation of the electrodes was performed using a micromanipulator (Burleigh PCS-6000, CA). The preamplifier was connected to an analog-to-digital signal converter (IDAC-4, Syntech, Germany), which in turn was connected to a computer for signal recording and visualization. The activity of co-located olfactory receptor neurons in each sensillum was assessed based on the differences in spike amplitude. The large spike amplitude was designated as cell A and the olfactory receptor neuron with the small spike amplitude was designated cell B (Ghaninia et al. Eur J Neurosci 26, 1611-1623 (2007)). Signals were recorded for 10 seconds starting 1 second before stimulation, and the action potentials were counted off-line over a 500-ms period before and after stimulation. The spontaneous firing rates observed in the preceding 500 milliseconds (ms) were subtracted from the total spike rates observed during the 500-ms stimulation, and counts were recorded in units of spikes/second.
(§2) Eighteen compounds besides pyrethrum from different chemical classes were selected for functional classification of olfactory sensilla with various morphological shapes (Extended Data FIG. 2). Each compound was diluted in dimethyl sulfoxide (DMSO) to a stock solution with a concentration of 100 μg/μl. Subsequently, a series of 10-fold dilutions were made from each of the stock solutions for each compound tested. For each dilution, a 10 μl portion was dispersed onto a filter paper strip (4×10 mm), which was then inserted into a Pasteur pipette to create the stimulus cartridge. A sample containing the solvent alone served as control. The airflow across the antennae was maintained constant at a 20 ml/second throughout the experiment. Purified and humidified air was delivered to the preparation through a glass tube (10-mm inner diameter) perforated by a small hole 10 cm away from the end of the tube, into which the tip of the Pasteur pipette could be inserted. The stimulus was delivered to the sensilla by inserting the tip of the stimulus cartridge into this hole and diverting a portion of the air stream (0.5 l/min) to flow through the stimulus cartridge for 500 ms using a stimulus controller (Syntech, Germany). The distance between the end of the glass tube and the antennae was ≤1 cm. The number of spikes/second was obtained by averaging the results for each sensillum/compound combination.
(§3) To identify which mosquito olfactory receptor neuron(s) responds to pyrethrum, single sensillum recordings (SSR) were performed of Ae. aegypti antennal olfactory sensilla in response to a panel of odorants (FIG. 2C-2L), most of which are plant-derived mosquito repellents, such as pyrethrum, (±)-citronellal, geranyl acetate and (−)-borneol. Three responsive sst sensilla were identified, sst1-3, and six responsive sbt sensilla, sbt1-6, based on their response profiles to the odorants in the panel (FIG. 2B, 2D-2L).

AgOr31 = assay: SSR of Drosophila ab3A empty neurons expressing AgOr31; assay type: cell-based, Anopheles gambiae; conditions: 10^−2 dilution
From the text: The method of Carey et al. (Nature 464, 66-71 (2010)) was used for heterologous expression of AgORs in the ab3 empty neurons. The Gal4 line (w; Cyo/Δhalo; Or22a-Gal4) was kindly provided by John Carlson (Yale Univ.), and 50 UAS-AgOr lines were obtained from the Bloomington Drosophila stock center.
Having identified sbt-1 and sst-1 as primary olfactory receptor neurons that are responsive to pyrethrum, experiments were designed to identify the specific odorant receptors (Ors) that are involved in these responses. An indexed library of An. gambiae Ors (AgOrs) (Carey et al., Nature 464, 66-71 (2010)) was used. Each of the 50 AgOrs was expressed in the “ab3 empty neuron” system of Drosophila melanogaster, in which the endogenous odorant receptor gene, Or22a, in the ab3 sensillum was deleted (FIG. 2N-2O, FIG. 3A).
Single sensillum recordings (SSR) were then examined from the resulting chimera ab3 sensillum that expressed the individual AgOrs in the D. melanogaster antenna when these flies were exposed to the same panel of odorants used in the analysis of Ae. aegypti sensilla. […] The odorant response profile of the sbt-1A neuron matches remarkably well with that of AgOr31 (FIGS. 2C, 2O).

[2] = system: sst-1 sensilla (sst-1A and sst-1B neurons); assay: Single sensillum recording (SSR) of antennal sst-1 sensilla; assay type: cell-based, Aedes aegypti; conditions: for response of sst-1A neurons: ROCK, 10^−1 dilution, FIG. 4A; for response of sst-1A neuron: wild-type ROCK, pyrethrum at 10^−2
Protocol: as §1, §2, §3

Ae. aegypti mosquitoes = assay: Hand-in-cage spatial repellency assay; assay type: in vivo, Aedes aegypti; conditions: for effect of (E)-β-farnesene on repellency of the compound: EBF 4 ppm, P-I 1000 ppm, P-II 1000 ppm, (−)-borneol 100 ppm; for repellency in pyrethrum/pyrethroid resistant KDR:ROCK mosquitoes compared to ROCK: FIG. 4G; for repellency in AaOr31−/− mosquitoes compared to wild-type mosquitoes: ROCK wild-type
From the text: The hand-in-cage assay employed was similar to the hand-in-glove assay described by Boyle et al. (bioRxiv, 060178 (2016)). The setup for the hand-in-cage assay includes a 30 cm×30 cm×30 cm mosquito cage (BioQuip, Rancho Dominguea, Calif.), with a mounted digital camera and a human hand in a modified glove with a screened window. The digital camera (e-con Systems Inc, San Jose, Calif., model: e-CAM51A) for video recording is mounted on the cage top and connected to a laptop computer. A nitrile rubber glove (Ansell Protective Products, Coshoton, Ohio, part number: 37-155) was cut on the back side of the glove to create a window (6 cm×5 cm) (FIG. 1A). A piece of magnetic frame (slightly larger than the dimension of the window) was glued onto the cut window which was used as a base for stacking more magnetic window frames (FIG. 1A; further explained below). One piece of test compound-treated polyester netting (Shason Textile Inc., part number: WS-B532-111, white; slightly larger than the dimension of the window) was placed on this fixed magnetic frame, which was ˜3.0 mm above the glove. The second piece of the netting was untreated and placed ˜6.0 mm above the treated net using a stack of four magnetic frames. The stacked magnetic frames were further secured with a binder clip. The stacking creates sufficient space between the treated net and the untreated net so that mosquitoes that land on the open window were not able to contact treated net, or to contact and pierce skin of a hand in the glove. The hand makes no contact with the treated net.
The assay was run in a room with humidity between around 50% and temperature between 27° C. to 30° C. Twenty-four hours before an assay, four to nine days-old females (about 40, mated, non-blood fed) were transferred into a mosquito cage. The cage was kept in an incubator where mosquitoes were provided only with water in a cotton ball placed on the top of the cage. Immediately before the assay, one researcher treated pieces of netting with 500 μl test compound dissolved in acetone in a glass Petri dish in an adjacent room. Acetone served a control. After letting acetone evaporate (˜7 min), the researcher assembled and put on a modified glove. In the meantime, a second researcher or a lab assistant transferred the prepared cage from the incubator to a bench in the assay room. Both personnel avoided use of any hand lotions and cosmetic products before an assay and wore white lab coats and gloves during the assay. The hand with the modified glove was introduced into the cage to initiate the assay. Mosquitoes landing on the test window was recorded by the digital camera for five minutes. The number of mosquitoes landing during the second to fifth minutes was counted and recorded. For each cage, solvent (acetone) control was tested first and then followed with a treatment. Data from any cage that gave a low landing number in a control trial were discarded. The time interval of assays between control and treatment was at least 1.5 hours, allowing the mosquitoes to fully recover and residual vapors from experiments to be ventilated out of the room. Percentage repellency was determined for each cage using the following equation:
Percentage repellency=[1−(cumulative number of mosquitoes landed on the window of treatment/cumulative number of mosquitoes landed on the window of solvent treatment)]×100).
The spatial repellency of pyrethrum was examined using a hand-in-cage assay (Ogoma et al. PLoS neglected tropical diseases 11, e0005455 (2017)). In this behavioral assay, mosquitoes were attracted to a human hand in a modified glove (FIG. 1A) with a screened window on the back of the glove. The mosquitoes landed on a piece of control mesh secured on the top of the window. Between the control mesh and the hand is another mesh treated with a test compound, with which mosquitoes cannot make direct contact (FIG. 1A).

[3] = 10^−3 dilution, Orlando (wild-type), FIG. 4B

CCCCCCCCCCCCCCCC(=O)OCC [ethyl palmitate]
response of sbt-1A neuron [1]: None | activation of AgOr31 (AgOr31): None

C=C/C=C\CC1=C(C)[C@@H](OC(=O)[C@@H]2[C@@H](/C=C(\C)C(=O)OC)C2(C)C)CC1=O [pyrethrin II]
response of sst-1A neurons [2]: activated | repellency in orco−/− mosquitoes compared to Orlando (Ae. aegypti mosquitoes; 10^−3 dilution, FIG. 4B): significantly reduced | spatial repellency (Ae. aegypti mosquitoes; [3]): elicited spatial repellency | effect of (E)-β-farnesene on repellency of the compound (Ae. aegypti mosquitoes; ROCK, FIG. 4D): synergized | repellency in pyrethrum/pyrethroid resistant KDR:ROCK mosquitoes compared to ROCK (Ae. aegypti mosquitoes): reduced

CC12CCC(CC1)C(C)(C)O2 [eucalyptol]
response of sst-1A neuron [2]: activated

CC(=O)OC/C=C(\C)CCC=C(C)C [geranyl acetate]
response of sbt-1A neurons in AaOr31−/− mosquitoes [1]: completely abolished | response of sbt-1A neuron [1]: strong excitatory responses | repellency in AaOr31−/− mosquitoes compared to wild-type mosquitoes (Ae. aegypti mosquitoes; 10^−2 dilution, FIG. 3B): significantly reduced

CCCCC/C=C\C/C=C\CCCCCCCC(=O)OCC [ethyl linoleate]
response of sbt-1A neuron [1]: None | activation of AgOr31 (AgOr31): None

CC12CCC(CC1=O)C2(C)C (centres unmarked) [camphor]
response of sst-1A neuron [2]: activated

C=C/C=C\CC1=C(C)[C@@H](OC(=O)[C@@H]2[C@@H](C=C(C)C)C2(C)C)CC1=O [pyrethrin I]
response of sst-1A neurons [2]: activated | repellency alone (Ae. aegypti mosquitoes; 1 ppm, ROCK, FIG. 4E): did not elicit repellency | repellency in orco−/− mosquitoes compared to Orlando (Ae. aegypti mosquitoes; 10^−3 dilution, FIG. 4B): significantly reduced | spatial repellency (Ae. aegypti mosquitoes; [3]): elicited spatial repellency | effect of (E)-β-farnesene on repellency of the compound (Ae. aegypti mosquitoes; ROCK, FIG. 4D): synergized | repellency in pyrethrum/pyrethroid resistant KDR:ROCK mosquitoes compared to ROCK (Ae. aegypti mosquitoes): reduced | synergism with (E)-β-farnesene in repellency (Ae. aegypti mosquitoes; pyrethrin I 1 ppm, EBF 10 ppm, ROCK, FIG. 4E): still evident

Cc1ccccc1 [toluene]
response of sbt-1B neurons in AaOr31−/− mosquitoes [1]: remained intact | response of sbt-1B neuron [1]: highly sensitive

CC(C)=CCCC(C)CC=O (racemic) [(±)-citronellal]
response of sbt-1A neurons in AaOr31−/− mosquitoes [1]: completely abolished | response of sbt-1A neuron [1]: strong excitatory responses | response of sst-1A neuron [2]: activated | repellency in AaOr31−/− mosquitoes compared to wild-type mosquitoes (Ae. aegypti mosquitoes; 10^−2 dilution, FIG. 3B): significantly reduced

c1ccc2[nH]ccc2c1 [indole]
response of sbt-1B neurons in AaOr31−/− mosquitoes [1]: remained intact | response of sbt-1B neuron [1]: highly sensitive

C=CC(=C)CC/C=C(\C)CCC=C(C)C [(E)-β-farnesene]
response of sbt-1A neurons in AaOr31−/− mosquitoes [1]: completely abolished | response of sbt-1A neuron [1]: activated | activation of AgOr31 (AgOr31): activated | repellency alone (Ae. aegypti mosquitoes; 4 ppm and 10 ppm, ROCK or AaOr31−/− mosquitoes, FIG. 4H): did not elicit repellency | repellency in AaOr31−/− mosquitoes compared to wild-type mosquitoes (Ae. aegypti mosquitoes; 10^−2 dilution, FIG. 3B): significantly reduced | spatial repellency (Ae. aegypti mosquitoes; 10^−2 dilution, ROCK, FIG. 3B): elicited spatial repellency | repellency alone (Ae. aegypti mosquitoes; 1000 ppm or lower concentrations, FIG. 4H): no repellency | repellency enhancement by (E)-β-farnesene in AaOr31−/− mosquitoes (Ae. aegypti mosquitoes; EBF 4 ppm with P-II 1000 ppm, FIG. 4D): abolished | repellency alone (Ae. aegypti mosquitoes; at 4 ppm or below): did not exhibit repellency
